Data on ten compounds can be found in BindingDB's records for doi:10.1016/j.bmcl.2008.04.044 (Wyeth Research, 2008).

The structures appear in SMILES notation. Where only a bound is given, the exact number is not on record here.

In the test the target is Insulin-like growth factor 1 receptor (Homo sapiens, UniProt P08069). The test is described as follows: In Vitro Kinase Inhibition Assay. The settings on record: pH 7.5; 22 °C. The procedure: Assays were performed in microtiter plates in reaction buffer containing biotinylated substrate, ATP, and purified kinase in the presence of test compounds. After incubation, product was detected using a homogeneous time-resolved fluorescence […] assay (LANCE).
Insulin-like growth factor 1 receptor, sequence (P08069 31-736 limits assumed): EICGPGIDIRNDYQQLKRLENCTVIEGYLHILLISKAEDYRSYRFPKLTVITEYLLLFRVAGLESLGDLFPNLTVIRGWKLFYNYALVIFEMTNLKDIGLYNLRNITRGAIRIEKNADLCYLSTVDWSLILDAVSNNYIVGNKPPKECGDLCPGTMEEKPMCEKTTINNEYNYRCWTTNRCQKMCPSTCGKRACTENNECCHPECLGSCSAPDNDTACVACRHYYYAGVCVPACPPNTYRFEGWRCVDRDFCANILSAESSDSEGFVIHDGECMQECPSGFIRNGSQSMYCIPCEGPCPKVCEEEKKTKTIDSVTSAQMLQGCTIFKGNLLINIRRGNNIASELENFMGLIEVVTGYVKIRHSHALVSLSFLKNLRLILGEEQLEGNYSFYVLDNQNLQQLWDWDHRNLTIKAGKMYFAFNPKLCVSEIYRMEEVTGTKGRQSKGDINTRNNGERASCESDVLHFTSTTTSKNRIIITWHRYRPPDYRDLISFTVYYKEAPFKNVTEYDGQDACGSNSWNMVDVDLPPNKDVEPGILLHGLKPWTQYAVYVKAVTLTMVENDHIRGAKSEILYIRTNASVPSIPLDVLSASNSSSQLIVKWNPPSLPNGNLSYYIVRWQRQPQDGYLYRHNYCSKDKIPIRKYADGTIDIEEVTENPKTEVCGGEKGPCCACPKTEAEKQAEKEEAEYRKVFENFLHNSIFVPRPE
Insulin-like growth factor 1 receptor, sequence (P08069 741-1367 limits assumed): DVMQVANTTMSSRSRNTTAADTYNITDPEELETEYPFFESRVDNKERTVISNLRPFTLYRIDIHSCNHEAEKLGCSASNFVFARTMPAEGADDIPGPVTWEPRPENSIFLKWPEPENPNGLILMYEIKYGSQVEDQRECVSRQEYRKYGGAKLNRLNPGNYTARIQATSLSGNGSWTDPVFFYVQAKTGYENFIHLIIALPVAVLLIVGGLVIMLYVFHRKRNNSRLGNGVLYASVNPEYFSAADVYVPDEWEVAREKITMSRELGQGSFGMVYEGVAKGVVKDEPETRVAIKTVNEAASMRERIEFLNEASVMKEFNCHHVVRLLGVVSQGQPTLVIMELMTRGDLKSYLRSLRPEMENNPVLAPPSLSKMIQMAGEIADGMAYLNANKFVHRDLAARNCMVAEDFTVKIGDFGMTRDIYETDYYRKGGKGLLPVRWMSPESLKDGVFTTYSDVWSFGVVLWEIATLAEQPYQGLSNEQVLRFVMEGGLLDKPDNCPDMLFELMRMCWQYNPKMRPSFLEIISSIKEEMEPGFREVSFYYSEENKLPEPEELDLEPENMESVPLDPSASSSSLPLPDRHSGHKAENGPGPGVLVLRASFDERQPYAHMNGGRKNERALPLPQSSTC

As a reminder, the IC50 is the concentration needed to halve the response being measured. Low readings indicate greater potency in that assay, high ones weaker potency in that assay. For `O=C1NC(=O)c2ccc(Nc3cccc(C(F)(F)F)c3)cc2C1=CNc1ccc(CN2CCCCC2)cc1` [(4Z)-4-({[4-(piperidin-1-ylmethyl)phenyl]amino}methylidene)-6-{[3-(trifluoromethyl)phenyl]amino}-1,2,3,4-tetrahydroisoquinoline-1,3-dione], the IC50 is > 10 µM. The result for `O=C1NC(=O)c2ccc(Nc3ccc4[nH]ccc4c3)cc2C1=CNc1ccc(CN2CCCCC2)cc1` [(4Z)-6-(1H-indol-5-ylamino)-4-({[4-(piperidin-1-ylmethyl)phenyl]amino}methylidene)-1,2,3,4-tetrahydroisoquinoline-1,3-dione] reads > 10 µM; that for `Nc1cccc(Nc2ccc3c(c2)C(=CNc2ccc(CN4CCCCC4)cc2)C(=O)NC3=O)c1` [(4Z)-6-[(3-aminophenyl)amino]-4-({[4-(piperidin-1-ylmethyl)phenyl]amino}methylidene)-1,2,3,4-tetrahydroisoquinoline-1,3-dione], > 10 µM. The result for `O=C1NC(=O)c2ccc(Nc3cccc(Cl)c3)cc2C1=CNc1ccccc1` [(4Z)-6-[(3-chlorophenyl)amino]-4-[(phenylamino)methylidene]-1,2,3,4-tetrahydroisoquinoline-1,3-dione] reads > 10 µM; that for `COc1cccc(Nc2ccc3c(c2)C(=CNc2ccccc2)C(=O)NC3=O)c1` [(4Z)-6-[(3-methoxyphenyl)amino]-4-[(phenylamino)methylidene]-1,2,3,4-tetrahydroisoquinoline-1,3-dione], > 10 µM; that for `Cc1cccc(Nc2ccc3c(c2)C(=CNc2ccc(CN4CCCCC4)cc2)C(=O)NC3=O)c1` [(4Z)-6-[(3-methylphenyl)amino]-4-({[4-(piperidin-1-ylmethyl)phenyl]amino}methylidene)-1,2,3,4-tetrahydroisoquinoline-1,3-dione], > 10 µM.

Consider `O=C1NC(=O)c2ccc(Nc3ccc(Cl)cc3)cc2C1=CNc1ccc(CN2CCCCC2)cc1` [(4Z)-6-[(4-chlorophenyl)amino]-4-({[4-(piperidin-1-ylmethyl)phenyl]amino}methylidene)-1,2,3,4-tetrahydroisoquinoline-1,3-dione], for which the IC50 was > 10 µM. As to `COc1cc(Nc2ccc3c(c2)C(=CNc2ccc(CN4CCCCC4)cc2)C(=O)NC3=O)cc(C(F)(F)F)c1` [(4Z)-6-{[3-methoxy-5-(trifluoromethyl)phenyl]amino}-4-({[4-(piperidin-1-ylmethyl)phenyl]amino}methylidene)-1,2,3,4-tetrahydroisoquinoline-1,3-dione], the IC50 is > 10 µM.

In the case of `CN(C)c1ccc(Nc2ccc3c(c2)C(=CNc2ccc(CN4CCCCC4)cc2)C(=O)NC3=O)cc1` [(4Z)-6-{[4-(dimethylamino)phenyl]amino}-4-({[4-(piperidin-1-ylmethyl)phenyl]amino}methylidene)-1,2,3,4-tetrahydroisoquinoline-1,3-dione], the IC50 was > 10 µM.

With `CCOC(=O)c1ccc(Nc2ccc3c(c2)C(=CNc2ccc(CN4CCCCC4)cc2)C(=O)NC3=O)cc1` [ethyl 4-{[(4Z)-1,3-dioxo-4-({[4-(piperidin-1-ylmethyl)phenyl]amino}methylidene)-1,2,3,4-tetrahydroisoquinolin-6-yl]amino}benzoate], the IC50 was > 10 µM.
